Experimental data from US12637430B2, “Interleukin-17 (IL-17) inhibitors” (priority 2020, dated 2026).
Like-named read-outs stand apart in the source and are kept apart here.

Assays:
[1] = Pharmacokinetic properties in rats (intravenous injection/oral gavage); type: in vivo; conditions: oral bioavailability
Method: (§1) In order to investigate the pharmacokinetic properties of the compound in rats, 3 rats were administered with the compounds at corresponding doses by intravenous injection/oral gavage, respectively. The anticoagulated whole blood of the rats were collected and the plasma was separated at 5 min, 15 min, 30 min, 1 h, 2 h, 4 h, 8 h, 24 h after administrated. In order to investigate the pharmacokinetic properties of the compound in mice, 6 mice were administered with the compound at the corresponding dose by intravenous injection/oral gavage. The mice administered by each route were divided into A group and B group. The anticoagulated whole blood was collected from the mice in group A at 5 min, 30 min, 2 h, and 8 h after the administration, and the anticoagulated whole blood was collected from the mice in group B at 15 min, 1 h, 4 h, and 24 h after the administration, and plasma was separated. In order to investigate the pharmacokinetic properties of dogs, two groups of 4 beagle dogs (2 males+2 females) were administered with the compound at corresponding doses by intravenous injection/oral gavage. The anticoagulated whole blood of each dog was collected, and the plasma was separated at 2 h, 4 h, 8 h, 12 h, 24 h, 36 h after the administration.
(§2) Plasma concentrations of compounds were determined by standard curve calibration by LC-MS. […]

[2] = test system: cytochrome P450 1A2 (CYP1A2); type: in vitro ADME; conditions: human hepatocytes
Method: In order to evaluate the induction of CYP enzymes in human hepatocytes by the compounds prepared in the above examples at 10 μM, Omeprazole (positive control) and the compound prepared in Example 32 (control compound 2) disclosed in patent application. WO2020/127685A1 were used as controls.

[3] = molecular target: T1, human IL-17A (Homo sapiens, UniProt Q16552); assay: IL-17A enzyme-linked immunosorbent assay (competitive ELISA, IL-17A/IL-17R binding)
T1 construct: purchased Sino Biological Inc. 12047-H07B
T1 sequence (Q16552 24-155): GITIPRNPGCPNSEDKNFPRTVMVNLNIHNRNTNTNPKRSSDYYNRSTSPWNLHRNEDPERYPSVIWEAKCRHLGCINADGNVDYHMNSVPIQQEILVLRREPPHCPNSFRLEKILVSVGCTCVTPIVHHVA
Method: The inhibition of receptor-ligand binding by human IL-17A inhibitors was quantified by competitive ELISA. 0.2 μg/mL of IL-17A (Sino Biological Inc. Cat #12047-H07B) was added in a 96-well plate at 100 μl per well for incubation for 30 min under 37° C. The 96-well plate was washed with PBST (PBS, 0.05% Tween-20) at 200 μl per well for 4 times, and then added with 200 μl of 5% skim milk and placed on a shaker for incubation at 25° C. for 30 min. The compound to be tested was prepared at 100× concentration ranging from 0.003 μM to 30 μM. After washed with PBST (PBS, 0.05% Tween-20) 4 times, the plate was added with 89 μl of PBST and 1 μl of the compound to be tested at 100× concentration followed by uniformly mixing and pre-incubation at 25° C. for 10 min. Then the plate was added with 10 μl of 16 nM IL-17R, and incubated on a shaker at 25° C. for 30 min. After washed for 4 times, the plate was added with 100 μl of anti-Fc-tag horseradish peroxidase (HRP)-conjugated antibody, and incubated on a shaker at 25° C. for 30 min. After washed 4 times, the plate was added with 100 μl of 3,3′, 5,5″-tetramethylbenzidine (TMB) substrate solution, and incubated at 25° C. in the dark. Then the plate was added with 20% HCl, followed by detection of the light absorption value at a wavelength of 450 nm by a microplate reader. The compounds prepared in the above examples were tested for human IL-17A inhibitory activity according to the above method.

[4] = molecular target: T2, human IL-17A protein (Homo sapiens, UniProt Q16552); assay: Inhibition of chemokine GROα/CXCL1 generation induced by human IL-17A protein in HT-29 cell; type: cell-based
T2 construct: purchased R&D 317-ILB
T2 sequence (Q16552 20-155 limits assumed): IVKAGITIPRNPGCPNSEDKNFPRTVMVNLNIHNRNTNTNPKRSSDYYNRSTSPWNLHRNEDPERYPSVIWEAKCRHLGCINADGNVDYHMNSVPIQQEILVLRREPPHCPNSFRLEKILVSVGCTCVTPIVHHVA
Method: HT-29 (Zhongyuan Gongchuang Technology Co., Ltd. of Chengdu, Sichuan) was added to a 96-well plate at 5×10^4 cells/well, and cultured overnight in a incubator at 37° C. A mixture of 30 ng/mL of human IL-17A protein (R&D, #317-ILB) and IL-17A small molecule inhibitors with gradient concentrations or 0.3 μg/mL of positive control IL-17A antibody (R&D, #AF-317-NA) was incubated at 37° C. for 1 h, and then added to the above-mentioned 96-well plate, and incubated with HT-29 cells at 37° C. for 48 hours. Then the GROα level in the cell culture supernatant was detected by an ELISA kit (Cisbio, #62HCXC1PEG) of the GROα.
According to the methods described in Experimental Examples 1 and 2, the compounds prepared in the above-mentioned examples were subjected to the experiment on inhibition of chemokine GROα/CXCL1 generation induced by human IL-17A protein in HT-29 cell.

[5] = test system: imiquimod-induced psoriasis mouse model; assay: Pharmacodynamic test on an imiquimod cream-induced psoriasis model in mice; type: in vivo, C57BL/6N mouse
Method: Each 10-week-old female C57 black 6 (C57BL/6N) mouse was shaved to approximately 2.5×4 cm on the back, which the imiquimod (IMQ, Imiquimod) cream continuously applies from the day 1-4, so as to establish a psoriasis model. Each mouse was administrated with the compound 51 prepared in this application by gavage (3, 10, 30 mg/kg) once a day, and administrated with IL-17A antibody solution by intraperitoneal injection (Ab, 2 mg/kg) every other day, or administrated with dexamethasone solution by intraperitoneal injection (10 mg/kg) once a day. […] On day 1 and day 5 of the experiment, the skin thickness of the mice was measured to investigate the skin thickening induced by IMQ.
On day 5 of the experiment, the skins of mice in each group were collected, the mRNA expression level of IL6 was detected by quantitative reverse transcription polymerase chain reaction (RT-qPCR) test. […] On day 5 of the experiment, the plasma of mice in each group was collected, and the IL6 protein level was measured.
On day 5 of the model, the skin samples were collected from the back of each mouse. The samples were fixed in 4% paraformaldehyde, and stained with hematoxylin-eosin (HE) to investigate the protective effect of compound 51 on skin pathological damage.

[6] = Pharmacokinetic properties in mice (intravenous injection/oral gavage); type: in vivo; conditions: oral bioavailability
Method: as §1, §2

[7] = Pharmacokinetic properties in dogs (intravenous injection/oral gavage); type: in vivo; conditions: oral bioavailability, beagle dogs
Method: as §1, §2

Compound	F % (Rats) [1] [%]	Note 1A2 (CYP1A2 induction) ([2]; 10 μM)	mRNA Expression level % of the positive control 1A2 ([2]; 10 μM) [%]	mRNA Expression level Fold of induction 1A2 ([2]; 10 μM)	Note 1A2 (CYP1A2 induction) ([2]; 10 μM, listed as compound 51)	IC50 [3] [nM]	IC50 [4] [nM]	skin thickening induced by IMQ (skin thickness day 1 and day 5) ([5]; compound 51 gavage 3, 10, 30 mg/kg once a day, antibody i.p. 2 mg/kg every other day, FIG. 1B)	skin pathological damage (HE staining) ([5]; day 5, 3, 10 and 30 mg/kg, FIGS. 2A-G)	mRNA expression level of IL6 in skin (RT-qPCR) ([5]; day 5, gavage 3, 10, 30 mg/kg, FIG. 1C)	IL6 protein level in plasma ([5]; day 5, gavage 3, 10, 30 mg/kg, FIG. 1D)	AUC of the psoriasis area and severity index (PASI) scoring curve (skin inflammation) ([5]; gavage 3, 10, 30 mg/kg once a day, FIG. 1A)	F % (Mice) [6] [%]	F %(Dogs) [7] [%]	mRNA Expression level Fold of induction 1A2 ([2]; concentration 25/750 μM (positive control))
Cc1n[nH]c(C)c1-c1ncc(NC(=O)[C@@H](NC(=O)c2ccnn2C(C)C)C(C2CC2)C2CC2)cc1F [Compound 51]	46	Non-	2.20	1.26	no inducing effect	42	224	reversed the skin thickening caused by IMQ at different levels	may inhibit the infiltration and damage of skin inflammatory cells induced by IMQ at different levels	dependently reversed the up-regulation of IL6 expression level	dependently inhibited the increase of IL6 protein level in the plasma	reduced the level of skin inflammation induced by IMQ	56	58	–
COc1ccc2[nH]c([S+]([O-])Cc3ncc(C)c(OC)c3C)nc2c1 (stereo not drawn) [Omeprazole, reference compound]	–	–	–	–	–	–	–	–	–	–	–	–	–	–	12.8
